Measured values as given in US10889849B2, “Oxidized glutathione assay” (PROMEGA CORPORATION, priority 2010, dated 2021).

Assays:
GST M = experiment: Fluorescent detection of glutathione using Coumarin derivatives, GST M; type: biochemical; settings: images at 1, 3, 5 and 20 minutes post GST enzyme addition
GST A = experiment: Fluorescent detection of glutathione using Coumarin derivatives, GST A; type: biochemical; settings: images at 1, 3, 5 and 20 minutes post GST enzyme addition
Protocol: (§1) A Prionex® solution was made by mixing 200 μl of 10% Prionex® (Sigma) with 9.8 ml of 10 mM potassium phosphate buffer, pH 7.4, and 75 μl added to all wells of a 96-well, microtiter plate (“sample plate”). Stock solutions (2 mg/ml) of the GST enzymes GST (Promega Corp. V689B), GST A, GST B, and GST P (purified to have less than 1 mole of GSH per mole of protein) were diluted by addition of 12 ul of the enzyme to 150 ul of 10 mM Potassium Phosphate buffer pH 7.4/Prionex solution. These diluted stocks were then added to the wells. 75 ul of the diluted stocks were added to the wells in row A, and 75 ul transferred from row A through to row H to generate 1:1 serially diluted enzyme solutions.
(§2) To a different, 96-well microtiter plate, 25 μl of diluted PBI 4153 (25 μl 1 mg/ml solution of PBI 4153 with 5 ml of 10 mM potassium phosphate pH 7.4) was added to wells A1-H10 of the plate (“4153”). […]
(§3) If one or more of the GST enzyme forms can catalyze the Coumarin compound in the presence of glutathione, the samples containing a GST enzyme form will have an increase in fluorescence. The better the GST enzyme form can utilize the Coumarin derivative, the more rapid the increase in fluorescence, and the lower the concentrations of GST enzyme needed to be able to produce a substantial increase in fluorescence over time.

[1] = target: T1, GST (Promega Corp. V689B) (Schistosoma japonicum, UniProt P08515); experiment: Fluorescent detection of glutathione using Coumarin derivatives, GST from Promega; type: biochemical; settings: images at 1, 3, 5 and 20 minutes post GST enzyme addition
T1 construct: purchased Promega Corp. V689B
Protocol: as §1, §2, §3

GST P = GST P (Homo sapiens, UniProt P09211); experiment: Fluorescent detection of glutathione using Coumarin derivatives, GST P; type: biochemical; settings: images at 1, 3, 5 and 20 minutes post GST enzyme addition
Sequence of GST P (P09211 whole entry): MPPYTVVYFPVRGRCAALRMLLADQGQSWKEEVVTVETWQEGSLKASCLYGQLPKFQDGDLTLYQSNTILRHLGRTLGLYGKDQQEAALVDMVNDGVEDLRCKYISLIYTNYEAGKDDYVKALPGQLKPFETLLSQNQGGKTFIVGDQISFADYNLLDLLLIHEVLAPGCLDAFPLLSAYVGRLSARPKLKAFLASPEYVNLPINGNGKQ
Protocol: as §1, §2, §3

[2] = Fluorescent detection using Coumarin derivatives, control wells with only buffer (no GST); type: biochemical; settings: reduced glutathione present, 1, 3, 5 and 20 minutes
Protocol: as §1, §2, §3

S. japonica GST (Sigma) = target: T2, S. japonica GST (Sigma) (Schistosoma japonicum, UniProt P08515); experiment: Two step luminescent test of GST-3 as GST substrate, S. japonica GST; type: biochemical
T2 construct: purchased Sigma
T2 sequence (P08515 whole entry): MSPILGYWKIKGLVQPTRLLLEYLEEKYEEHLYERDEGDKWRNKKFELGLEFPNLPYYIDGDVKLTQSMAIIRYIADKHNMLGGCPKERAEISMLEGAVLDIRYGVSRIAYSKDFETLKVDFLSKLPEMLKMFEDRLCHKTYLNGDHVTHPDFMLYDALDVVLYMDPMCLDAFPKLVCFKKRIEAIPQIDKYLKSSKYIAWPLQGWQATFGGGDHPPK
Protocol: (§4) In the first step, GST-3 was added to a mixture containing a GST enzyme with or without glutathione. At different times after reaction initiation, a portion of the reaction was mixed with a luciferase reaction mixture. Reactions in which light production increased over time indicate that the derivative, GST-3, is a substrate for GST and can be used in an assay to detect GST and/or reduced glutathione (GSH).
(§5) Various GST enzyme forms were used to test the use of GST-3 as a substrate for GST to detect GST or GSH. All components except for the GST enzyme were added.

porcine GST (Sigma) = experiment: Two step luminescent test of GST-3 as GST substrate, porcine GST; type: biochemical
Protocol: as §4, §5

equine GST (Sigma) = experiment: Two step luminescent test of GST-3 as GST substrate, equine GST; type: biochemical
Protocol: as §4, §5

[3] = Two step luminescent test of GST-3, reactions without GST enzyme; type: biochemical
Protocol: as §4, §5

[4] = numerous reports (Srivastava et al. 2010); leading to cell death by apoptosis or necrosis; cited from earlier work
GST (Promega) = target: T3, GST (Promega) (Schistosoma japonicum, UniProt P08515); experiment: GSSG measurement with other luciferin derivatives (luminescence); type: biochemical; settings: GSSG 0.0 μM, luminescence without GSSG subtracted
T3 construct: purchased Promega
T3 sequence (P08515 whole entry): as above
Protocol: Oxidized glutathione was serially diluted from a 10 mM stock in water to 0, 0.1, 0.5 and 2.5 uM into three different 96-well luminometer plates with duplicate reactions performed. A 30 μl sample of the GST 30 stock was diluted to 3 ml with GSH Glo Reaction Buffer (Promega), and 25 μl added to one of the plates (“30”). A 30 μl sample of GST 28 was diluted to 3 ml with GSH Glo Reaction Buffer, and 25 μl added to a second plate (“28”). A 110 μL sample of GST-22 was diluted to 3 ml with GSH Glo Reaction Buffer, and 25 μl added to the third plate (“GST-22” or “NT”). 50 μl of GSH Glo Reaction Buffer was then added to half the samples of each plate. 25 μl GSH Glo Reaction Buffer with DTT (150 μl of 100 mM DTT to 15 ml of GSH Glo Reaction Buffer) was added to the other half of the samples in each of the plates.
A 60 μl sample of GST (Promega) was diluted to 1 ml with GSH Glo Reaction Buffer, and 50 μl added to duplicate columns of each plate. […] The resulting luminescence was collected, and the duplicates averaged. The luminescence measured in the absence of GSSG was subtracted from that of the three GSSG concentrations, and the resulting values are presented in Table 6.

Compound: Cc1cc(=O)oc2cc(OS(=O)(=O)c3ccc([N+](=O)[O-])cc3)ccc12 [PBI 4146]
- Utilization of the Coumarin compound (increase in fluorescence) (GST M): can rapidly utilize the Coumarin compound
- Utilization of the Coumarin compound (increase in fluorescence) (GST A): either did not utilize this compound or utilized it at very, very slow rate
- Utilization of the Coumarin compound (increase in fluorescence) [1]: can also utilize the compound, but at an even slower rate than GST M
- Utilization of the Coumarin compound (increase in fluorescence) (GST P): either did not utilize this compound or utilized it at very, very slow rate
- Increase in fluorescence in control wells [2]: no apparent increase in fluorescence

Compound: O=C(O)[C@H]1CSC(c2ccc3cc(Oc4ccc(C(F)(F)F)cc4[N+](=O)[O-])ccc3n2)=N1 [GST-3, 6-(2 nitro-4-trifluoromethyl-phenoxy)quinolinyl-luciferin]
- Luminescence values (RLUs) (S. japonica GST (Sigma); reaction 3: S. japonica GST, no glutathione, 0.1 minutes): 32.67 RLUs
- Luminescence values (RLUs) (S. japonica GST (Sigma); reaction 3: S. japonica GST, no glutathione, 5 minutes): 32.42 RLUs
- Luminescence values (RLUs) (S. japonica GST (Sigma); reaction 3: S. japonica GST, no glutathione, 10 minutes): 38.65 RLUs
- Luminescence values (RLUs) (S. japonica GST (Sigma); reaction 3: S. japonica GST, no glutathione, 15 minutes): 33.82 RLUs
- Luminescence values (RLUs) (S. japonica GST (Sigma); reaction 4: S. japonica GST with glutathione, 0.1 minutes): 32.57 RLUs
- Luminescence values (RLUs) (S. japonica GST (Sigma); reaction 4: S. japonica GST with glutathione, 5 minutes): 40.79 RLUs
- Luminescence values (RLUs) (S. japonica GST (Sigma); reaction 4: S. japonica GST with glutathione, 10 minutes): 48.64 RLUs
- Luminescence values (RLUs) (S. japonica GST (Sigma); reaction 4: S. japonica GST with glutathione, 15 minutes): 61.54 RLUs
- Luminescence values (RLUs) (porcine GST (Sigma); reaction 5: porcine GST, no glutathione, 0.1 minutes): 46.95 RLUs
- Luminescence values (RLUs) (porcine GST (Sigma); reaction 5: porcine GST, no glutathione, 5 minutes): 51.85 RLUs
- Luminescence values (RLUs) (porcine GST (Sigma); reaction 5: porcine GST, no glutathione, 10 minutes): 51.15 RLUs
- Luminescence values (RLUs) (porcine GST (Sigma); reaction 5: porcine GST, no glutathione, 15 minutes): 48.41 RLUs
- Luminescence values (RLUs) (porcine GST (Sigma); reaction 6: porcine GST with glutathione, 0.1 minutes): 71.1 RLUs
- Luminescence values (RLUs) (porcine GST (Sigma); reaction 6: porcine GST with glutathione, 5 minutes): 269.1 RLUs
- Luminescence values (RLUs) (porcine GST (Sigma); reaction 6: porcine GST with glutathione, 10 minutes): 463.2 RLUs
- Luminescence values (RLUs) (porcine GST (Sigma); reaction 6: porcine GST with glutathione, 15 minutes): 619.3 RLUs
- Luminescence values (RLUs) (equine GST (Sigma); reaction 7: equine GST, no glutathione, 0.1 minutes): 30.42 RLUs
- Luminescence values (RLUs) (equine GST (Sigma); reaction 7: equine GST, no glutathione, 5 minutes): 32.98 RLUs
- Luminescence values (RLUs) (equine GST (Sigma); reaction 7: equine GST, no glutathione, 10 minutes): 38.75 RLUs
- Luminescence values (RLUs) (equine GST (Sigma); reaction 7: equine GST, no glutathione, 15 minutes): 38.39 RLUs
- Luminescence values (RLUs) (equine GST (Sigma); reaction 8: equine GST with glutathione, 0.1 minutes): 252.2 RLUs
- Luminescence values (RLUs) (equine GST (Sigma); reaction 8: equine GST with glutathione, 5 minutes): 3662 RLUs
- Luminescence values (RLUs) (equine GST (Sigma); reaction 8: equine GST with glutathione, 10 minutes): 7629 RLUs
- Luminescence values (RLUs) (equine GST (Sigma); reaction 8: equine GST with glutathione, 15 minutes): 9324 RLUs
- Luminescence values (RLUs) ([3]; reaction 1: no GST, no glutathione, 0.1 minutes): 33.26 RLUs
- Luminescence values (RLUs) ([3]; reaction 1: no GST, no glutathione, 5 minutes): 38.2 RLUs
- Luminescence values (RLUs) ([3]; reaction 1: no GST, no glutathione, 10 minutes): 32.17 RLUs
- Luminescence values (RLUs) ([3]; reaction 1: no GST, no glutathione, 15 minutes): 35.53 RLUs
- Luminescence values (RLUs) ([3]; reaction 2: no GST, with glutathione, 0.1 minutes): 35.72 RLUs
- Luminescence values (RLUs) ([3]; reaction 2: no GST, with glutathione, 5 minutes): 36.07 RLUs
- Luminescence values (RLUs) ([3]; reaction 2: no GST, with glutathione, 10 minutes): 40.85 RLUs
- Luminescence values (RLUs) ([3]; reaction 2: no GST, with glutathione, 15 minutes): 46.43 RLUs

Compound: NNC(=O)c1ccncc1 [isoniazid]
- Effect on the ratio of GSH to GSSG [4]: dramatically reduce the ratio of GSH to GSSG

Compound: CC(=O)Nc1ccc(O)cc1 [acetaminophen]
- Effect on the ratio of GSH to GSSG [4]: dramatically reduce the ratio of GSH to GSSG

Compound: Cc1ccc(S(=O)(=O)Oc2ccc3nc(C4=N[C@@H](C(=O)O)CS4)sc3c2)c([N+](=O)[O-])c1 [GST-22, Luciferin 2-nitro-4-methylbenzenesulfonate]
- Luminescence, GST with DTT (GST (Promega); GST with DTT): 0
- Luminescence, No DTT (GST (Promega); without enzyme and DTT): 0
- Luminescence, With DTT (GST (Promega); without enzyme but with DTT): 0

Compound: Cc1cc(=O)oc2cc(OS(=O)(=O)c3ccc([N+](=O)[O-])c4ccccc34)ccc12 [PBI 4153]
- Utilization of the Coumarin compound (increase in fluorescence) (GST M): can rapidly utilize the Coumarin compound as a substrate
- Utilization of the Coumarin compound (increase in fluorescence) (GST A): can also utilize the compound, but at a slower rate
- Utilization of the Coumarin compound (increase in fluorescence) [1]: also utilized the compound but at an even slower rate than GST A
- Utilization of the Coumarin compound (increase in fluorescence) (GST P): either did not utilize this compound or utilized it at a very, very slow rate
- Increase in fluorescence in control wells [2]: no apparent increase in fluorescence

Compound: CC/C(=C(\c1ccccc1)c1ccc(OCCN(C)C)cc1)c1ccccc1 [tamoxifen]
- Effect on the ratio of GSH to GSSG [4]: dramatically reduce the ratio of GSH to GSSG
